Measured values from US8618107B2 (Gilead Connecticut, Inc., priority 2010, dated 2013).

target: Btk (Homo sapiens (Human), UniProt Q06187); assay: standard biochemical Btk Kinase Assay (Example 901); details: Table 1
Sequence (Q06187 whole entry): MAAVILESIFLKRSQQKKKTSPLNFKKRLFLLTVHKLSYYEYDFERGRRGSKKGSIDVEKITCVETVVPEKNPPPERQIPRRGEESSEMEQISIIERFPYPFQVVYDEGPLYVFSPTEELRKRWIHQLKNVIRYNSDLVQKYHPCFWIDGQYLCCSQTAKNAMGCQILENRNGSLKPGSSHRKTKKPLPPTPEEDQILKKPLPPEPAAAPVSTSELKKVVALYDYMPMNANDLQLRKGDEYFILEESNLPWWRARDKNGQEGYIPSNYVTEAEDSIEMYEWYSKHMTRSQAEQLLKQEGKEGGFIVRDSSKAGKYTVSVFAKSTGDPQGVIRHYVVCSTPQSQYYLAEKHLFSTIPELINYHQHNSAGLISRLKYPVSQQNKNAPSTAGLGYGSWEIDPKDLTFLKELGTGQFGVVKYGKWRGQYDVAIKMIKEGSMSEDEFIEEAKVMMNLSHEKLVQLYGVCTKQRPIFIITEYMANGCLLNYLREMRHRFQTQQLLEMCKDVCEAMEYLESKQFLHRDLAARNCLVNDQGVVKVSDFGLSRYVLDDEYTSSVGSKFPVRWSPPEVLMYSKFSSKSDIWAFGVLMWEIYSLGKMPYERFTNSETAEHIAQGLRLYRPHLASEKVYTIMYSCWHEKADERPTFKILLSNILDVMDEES
Excerpt: Determination of IC50 values can be accomplished using conventional techniques known in the art. In general, an IC50 can be determined by measuring the activity of a given enzyme in the presence of a range of concentrations of the inhibitor under study. The experimentally obtained values of enzyme activity then are plotted against the inhibitor concentrations used. […] Analogously, other inhibitory concentrations can be defined through appropriate determinations of activity.

Row | IC50 | SMILES
1 | 10.1 nM | Cn1cc(-c2cccc(N3CCn4c(cc5c4CCCC5)C3=O)c2CO)cc(Nc2ccc(N3CCOCC3)cn2)c1=O [Example 107, 2-(2-(hydroxymethyl)-3-(1-methyl-5-(5-morpholinopyridin-2-ylamino)-6-oxo-1,6-dihydropyridin-3-yl)phenyl)-3,4,6,7,8,9-hexahydropyrazino[1,2-a]indol-1(2H)-one]
2 | 3200 nM | Cc1c(-c2cc(Nc3cc4n(n3)CCN(C)C4)c(=O)n(C)n2)cccc1N1Cc2c(sc3ccccc23)C1=O [Example 103, 4-{2-Methyl-3-[1-methyl-5-({5-methyl-4H,5H,6H,7H-pyrazolo[1,5-a]pyrazin-2-yl}amino)-6-oxo-1,6-dihydropyridazin-3-yl]phenyl}-7-thia-4-azatricyclo[6.4.0.0^2,6]dodeca-1(8),2(6),9,11-tetraen-5-one]
3 | 2 nM | Cc1c(-c2cc(Nc3cc4n(n3)CCN(C)C4)c(=O)[nH]n2)cccc1N1CCn2c(cc3c2CCCC3)C1=O [Example 101]
4 | 22.9 nM | Cc1c(-c2cc(Nc3cc4n(n3)CCN(C)C4)c(=O)[nH]n2)cccc1N1CCn2c(cc3ccccc32)C1=O [Example 102]
5 | 6.1 nM | CC(=O)N1CCn2nc(Nc3cc(-c4cccc(N5CCn6c(cc7c6CCCC7)C5=O)c4CO)cn(C)c3=O)cc2C1 [Example 108, 2-(3-(5-(5-acetyl-4,5,6,7-tetrahydropyrazolo[1,5-a]pyrazin-2-ylamino)-1-methyl-6-oxo-1,6-dihydropyridin-3-yl)-2-(hydroxymethyl)phenyl)-3,4,6,7,8,9-hexahydropyrazino[1,2-a]indol-1(2H)-one]
6 | 7 nM | Cn1nc(Nc2cc(-c3cccc(N4CCc5c(sc6c5CCCC6)C4=O)c3CO)nn(C)c2=O)cc1C(C)(C)O [Example 119, 5-[2-(hydroxymethyl)-3-(5-{[5-(2-hydroxypropan-2-yl)-1-methyl-1H-pyrazol-3-yl]amino}-1-methyl-6-oxo-1,6-dihydropyridazin-3-yl)phenyl]-8-thia-5-azatricyclo[7.4.0.02,7]trideca-1(9),2(7)-dien-6-one]
7 | 6 nM | Cn1cc(-c2cccc(N3CCc4c(sc5c4CCCC5)C3=O)c2CO)nc(Nc2cnn(CCO)c2)c1=O [Example 116, 5-[3-(6-{[1-(2-Hydroxyethyl)-1H-pyrazol-4-yl]amino}-4-methyl-5-oxo-4,5-dihydropyrazin-2-yl)-2-(hydroxymethyl)phenyl)-8-thia-5-azatricyclo[7.4.0.02,7]trideca-1(9),2(7)-dien-6-one]

same assay, conditions: Table 2

Row | IC50 | SMILES
8 | 4.2 nM | CN(C)CCOc1ccc(Nc2cc(-c3cc(F)cc(N4CCn5c(cc6c5CCCC6)C4=O)c3CO)cn(C)c2=O)nc1 [Example 297, 2-(3-(5-(5-(2-(Dimethylamino)ethoxy)pyridin-2-ylamino)-1-methyl-6-oxo-1,6-dihydropyridin-3-yl)-5-fluoro-2-(hydroxymethyl)phenyl)-3,4,6,7,8,9-hexahydropyrazino[1,2-a]indol-1(2H)-one]
9 | 6.1 nM | Cn1cc(-c2cccc(N3CCn4c(cc5c4CCCC5)C3=O)c2CO)cc(Nc2ccc(N3CCNCC3)cn2)c1=O [Example 301, 2-(2-(Hydroxymethyl)-3-(1-methyl-6-oxo-5-(5-(piperazin-1-yl)pyridin-2-ylamino)-1,6-dihydropyridin-3-yl)phenyl)-3,4,6,7,8,9-hexahydropyrazino[1,2-a]indol-1(2H)-one]
10 | 16 nM | CN1CCC(c2ccc(Nc3nc(-c4cc(F)cc(N5CCn6c(cc7c6CC(C)(C)C7)C5=O)c4CO)cn(C)c3=O)cc2)CC1 [Example 294, 10-[5-Fluoro-2-(hydroxymethyl)-3-(4-methyl-6-{[4-(1-methylpiperidin-4-yl)phenyl]amino}-5-oxo-4,5-dihydropyrazin-2-yl)phenyl]-4,4-dimethyl-1,10-diazatricyclo[6.4.0.0^2,6]dodeca-2(6),7-dien-9-one]
11 | 2.6 nM | CN1CCC(c2ccc(Nc3nc(-c4cc(F)cc(N5CCc6c(sc7c6CC(C)(C)C7)C5=O)c4CO)cn(C)c3=O)cc2)CC1 [Example 278, 10-[5-Fluoro-2-(hydroxymethyl)-3-(4-methyl-6-{[4-(1-methylpiperidin-4-yl)phenyl]amino}-5-oxo-4,5-dihydropyrazin-2-yl)phenyl]-4,4-dimethyl-7-thia-10-azatricyclo[6.4.0.0^2,6]dodeca-1(8),2(6)-dien-9-one]
12 | 7.1 nM | CN1CCN(c2ccc(Nc3cc(-c4cccc(N5CCn6c(cc7c6CCCC7)C5=O)c4CO)nn(C)c3=O)nc2)CC1 [Example 307, 2-(2-(Hydroxymethyl)-3-(1-methyl-5-(5-(4-methylpiperazin-1-yl)pyridin-2-ylamino)-6-oxo-1,6-dihydropyridazin-3-yl)phenyl)-3,4,6,7,8,9-hexahydropyrazino[1,2-a]indol-1(2H)-one]
13 | 5.2 nM | CN1CCC(c2ccc(Nc3nc(-c4cc(F)cc(N5CCc6c(sc7c6CCCC7)C5=O)c4CO)cn(C)c3=O)cc2)CC1 [Example 281, 5-[5-Fluoro-2-(hydroxymethyl)-3-(4-methyl-6-{[4-(1-methylpiperidin-4-yl)phenyl]amino}-5-oxo-4,5-dihydropyrazin-2-yl)phenyl]-8-thia-5-azatricyclo[7.4.0.0^2,7]trideca-1(9),2(7)-dien-6-one]
14 | 11.6 nM | Cn1cc(-c2cc(F)cc(N3CCn4c(cc5c4CC(C)(C)C5)C3=O)c2CO)cc(Nc2ccc3c(n2)CCN(C2COC2)C3)c1=O [Example 292, 10-[5-Fluoro-2-(hydroxymethyl)-3-(1-methyl-5-{[6-(oxetan-3-yl)-5,6,7,8-tetrahydro-1,6-naphthyridin-2-yl]amino}-6-oxo-1,6-dihydropyridin-3-yl)phenyl]-4,4-dimethyl-1,10-diazatricyclo[6.4.0.0^2,6]dodeca-2(6),7-dien-9-one]
15 | 16.5 nM | Cn1cc(-c2cccc(N3CCc4c(cc5n4CCCC5)C3=O)c2CO)cc(Nc2cc3n(n2)CCOC3)c1=O [Example 309, 5-[2-(Hydroxymethyl)-3-{1-oxo-1H,2H,3H,4H,6H,7H,8H,9H-pyrido[3,4-b]indolizin-2-yl}phenyl]-1-methyl-3-{4H,6H,7H-pyrazolo[3,2-c][1,4]oxazin-2-ylamino}-1,2-dihydropyridin-2-one]
16 | 7.8 nM | Cn1cc(-c2cc(F)cc(N3CCn4c(cc5c4CC(C)(C)C5)C3=O)c2CO)cc(Nc2ccc(N3CCN(C4COC4)CC3)cn2)c1=O [Example 304, 10-[5-Fluoro-2-(hydroxymethyl)-3-[1-methyl-5-({5-[4-(oxetan-3-yl)piperazin-1-yl]pyridine-2-yl}amino)-6-oxo-1,6-dihydropyridin-3-yl]phenyl]-4,4-dimethyl-1,10-diazatricyclo[6.4.0.0^2,6]dodeca-2(6),7-dien-9-one]
17 | 1.74 nM | CN1CCC[C@@H]1c1ccc(Nc2cc(-c3cc(F)cc(N4CCn5c(cc6c5CC(C)(C)C6)C4=O)c3CO)cn(C)c2=O)nc1 [Example 291, 10-[5-Fluoro-2-(hydroxymethyl)-3-[1-methyl-5-({5-[(2R)-1-methylpyrrolidin-2-yl]pyridine-2-yl}amino)-6-oxo-1,6-dihydropyridin-3-yl]phenyl]-4,4-dimethyl-1,10-diazatricyclo[6.4.0.0^2,6]dodeca-2(6),7-dien-9-one]
18 | 5.3 nM | CN1CC(c2ccc(Nc3nc(-c4cc(F)cc(N5CCc6c(sc7c6CC(C)(C)C7)C5=O)c4CO)cn(C)c3=O)cc2)C1 [Example 298, 10-[5-fluoro-2-(hydroxymethyl)-3-(4-methyl-6-{[4-(1-methylazetidin-3-yl)phenyl]amino}-5-oxopyrazin-2-yl)phenyl]-4,4-dimethyl-7-thia-10-azatricyclo[6.4.0.0^2,6]dodeca-1(8),2(6)-dien-9-one]
19 | 9.9 nM | CCn1nc(Nc2cc(-c3cc(F)cc(N4CCn5c(cc6c5CC(C)(C)C6)C4=O)c3CO)cn(C)c2=O)cc1C [Example 302, 10-(3-{5-[(1-Ethyl-5-methyl-1H-pyrazol-3-yl)amino]-1-methyl-6-oxo-1,6-dihydropyridin-3-yl}-5-fluoro-2-(hydroxymethyl)phenyl)-4,4-dimethyl-1,10-diazatricyclo[6.4.0.0^2,6]dodeca-2(6),7-dien-9-one]
20 | 8.1 nM | CN1CCc2cc(Nc3nc(-c4cc(F)cc(N5CCn6c(cc7c6CCCC7)C5=O)c4CO)cn(C)c3=O)ccc2C1 [Example 283, 2-(5-Fluoro-2-(hydroxymethyl)-3-(4-methyl-6-(2-methyl-1,2,3,4-tetrahydroisoquinolin-6-ylamino)-5-oxo-4,5-dihydropyrazin-2-yl)phenyl)-3,4,6,7,8,9-hexahydropyrazino[1,2-a]indol-1(2H)-one]
21 | 16.6 nM | CCN1CCN(c2ccc(Nc3cc(-c4cccc(N5CCc6c(cc7n6CCCC7)C5=O)c4CO)cn(C)c3=O)nc2)CC1 [Example 310, 3-{[5-(4-Ethylpiperazin-1-yl)pyridine-2-yl]amino}-5-[2-(hydroxymethyl)-3-{1-oxo-1H,2H,3H,4H,6H,7H,8H,9H-pyrido[3,4-b]indolizin-2-yl}phenyl]-1-methyl-1,2-dihydropyridin-2-one]
22 | 5 nM | Cn1cc(-c2cc(F)cc(N3CCn4c(cc5c4CCCC5)C3=O)c2CO)cc(Nc2cc3n(n2)CCOC3)c1=O [Example 149, 2-(3-(5-(6,7-Dihydro-4H-pyrazolo[5,1-c][1,4]oxazin-2-ylamino)-1-methyl-6-oxo-1,6-dihydropyridin-3-yl)-5-fluoro-2-(hydroxymethyl)phenyl)-3,4,6,7,8,9-hexahydropyrazino[1,2-a]indol-1(2H)-one]
23 | 2.2 nM | Cc1cc(Nc2cc(-c3cc(F)cc(N4CCn5c(cc6c5CC(C)(C)C6)C4=O)c3CO)cn(C)c2=O)n[nH]1 [Example 276, 10-[5-Fluoro-2-(hydroxymethyl)-3-{1-methyl-5-[(5-methyl-1H-pyrazol-3-yl)amino]-6-oxo-1,6-dihydropyridin-3-yl}phenyl]-4,4-dimethyl-1,10-diazatricyclo[6.4.0.0^2,6]dodeca-2(6),7-dien-9-one]
24 | 2.34 nM | Cn1cc(-c2cc(F)cc(N3CCn4c(cc5c4CC(C)(C)C5)C3=O)c2CO)cc(Nc2ccc(CN3CCOCC3)cn2)c1=O [Example 274, 10-[5-Fluoro-2-(hydroxymethyl)-3-(1-methyl-5-{[5-(morpholin-4-ylmethyl)pyridine-2-yl]amino}-6-oxo-1,6-dihydropyridin-3-yl)phenyl]-4,4-dimethyl-1,10-diazatricyclo[6.4.0.0^2,6]dodeca-2(6),7-dien-9-one]
